# Values of other authors, collected in patent publication US20140271465A1, “MATRIX METALLOPROTEASE (MMP) TARGETED AGENTS FOR IMAGING AND THERAPY” (Mallinckrodt LLC, priority 2013, published 2014).
# How the values were obtained:
# rhMMP14 = molecular target: T1, rhMMP14 (Homo sapiens, UniProt P50281); conditions: control compound, vendor description
# T1 construct: purchased R&D Systems 918-MP
# rhMMP2 = molecular target: T2, rhMMP2 (Homo sapiens, UniProt P08253); conditions: control compound, vendor description
# T2 construct: purchased R&D Systems 902-MP
# T2 sequence (P08253 110-660): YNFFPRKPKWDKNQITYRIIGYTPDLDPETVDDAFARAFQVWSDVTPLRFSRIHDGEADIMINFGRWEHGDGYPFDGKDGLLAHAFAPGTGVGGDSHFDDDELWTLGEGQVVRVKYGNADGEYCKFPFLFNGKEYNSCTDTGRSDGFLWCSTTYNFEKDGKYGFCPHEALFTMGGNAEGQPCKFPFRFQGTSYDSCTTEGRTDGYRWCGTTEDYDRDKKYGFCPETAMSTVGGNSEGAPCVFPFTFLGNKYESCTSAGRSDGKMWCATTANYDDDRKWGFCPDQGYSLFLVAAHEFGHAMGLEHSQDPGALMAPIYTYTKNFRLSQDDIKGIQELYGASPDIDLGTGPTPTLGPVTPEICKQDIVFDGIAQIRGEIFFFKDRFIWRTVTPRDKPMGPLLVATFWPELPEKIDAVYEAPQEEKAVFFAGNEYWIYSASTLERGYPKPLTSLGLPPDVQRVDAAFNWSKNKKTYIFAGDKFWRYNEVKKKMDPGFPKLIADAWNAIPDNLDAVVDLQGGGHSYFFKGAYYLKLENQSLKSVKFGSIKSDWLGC
Compound,Inhibition of MMP-14 (control description) (rhMMP14),Inhibition of MMP-2 (control description) (rhMMP2)
CC(C)ON(CC(=O)NO)S(=O)(=O)c1ccc(-c2ccccc2)cc1 [ARP100],poor inhibitor for MMP-14,selective MMP-2 inhibitor
CNC(=O)[C@H](Cc1ccccc1)NC(=O)[C@H](CC(C)C)[C@H](CSc1cccs1)C(=O)NO [Batimastat],low nM levels,low nM levels
